Where two headings read alike, the source gives them in different places.
How the values were obtained:
Format in all cases: cell-based
[1] = tested on: Giardia intestinalis trophozoites; assay: In vitro assay on trophozoite form of Giardia intestinalis (resazurin, 48 h); settings: for IC50: Giardia duodenalis, trophozoites, 48 h, read-out: G. intestinalis IC50
Procedure: Trophozoites of Giardia (strain ATCC® 203333) were grown in modified TYI-S-33 medium at pH 7.0, supplemented with 10% heat-inactivated fetal calf serum and 0.5 g bovine bile (Sigma-Aldrich, St Louis, MO, USA), in 20 mL screw-cap culture vials. The assay was carried out according to a previously described method. Detachment of trophozoites for preparation of inoculant was achieved by chilling the cultures on ice for 20 min. Trophozoites (5 × 10^4 parasites/well) were cultured in 96-well plastic plates (Sarstedt, Nümbrecht, Germany). Compounds were dissolved in DMSO. […] To evaluate cell viability, the fluorescence intensity (535 nm-excitation wavelength- and 590 nm-emission wavelength) was determined with a fluorimeter Infinite 200 (Tecan i-Control, Tecan Ibérica Instrumentation S.L., Barcelona, Spain) to calculate the growth inhibition rate (%). All tests were carried out in triplicate. Metronidazole was used as a reference drug. […] All values were expressed as means ± standard error of the mean (S.E.M.). Statistically significant differences between treated and control samples were tested by one-way analysis of variance (ANOVA).

[2] = tested on: murine macrophage J774 cell line; assay: Cytotoxicity assay on murine macrophages (resazurin, 48 h); settings: for SI: selectivity index (CC50/IC50): J774 macrophages vs G. intestinalis, pure flavonoids (Table 4)
Procedure: (§1) A., Madrid, Spain) at 37 °C and 5% CO2 air atmosphere. The assay was carried out according to a previously described method. […] Growth controls and signal-to-noise were also included. Afterward, a volume of 20 μL of 2.5 mM resazurin solution in PBS was added, and plates were placed again in the incubator for another 3 h to evaluate cell viability. The reduction of resazurin was determined by fluorometry as in the promastigote assay. Each concentration was assayed in triplicate. […] All values were expressed as means ± standard error of the mean (S.E.M.). Statistically significant differences between treated and control samples were tested by one-way analysis of variance (ANOVA).

[3] = as above; settings: mouse, J774 cell line, 48 h
Procedure: as §1

[4] = J774 macrophage cell line, pure flavonoids

| Compound | IC50 ([1]; pure flavonoids) [µM] | SI: selectivity index (CC50/IC50) [2] | CC50 at 48 h [3, 4] [µM] | Macrophages CC50 [2] [µg/mL] | CC50 at 48 h ([3]; pure flavonoids) [µM] | Antiparasitic potency relative to metronidazole ([1]; IC50 ratio to the reference drug metronidazole) [fold] | IC50 ([1]; extract, fractions and sub-fractions of Piper delineatum leaves) [µg/mL] | CC50 at 48 h ([3]; J774 macrophage cell line, extract, fractions and sub-fractions) [µg/mL] |
| --- | --- | --- | --- | --- | --- | --- | --- | --- |
| COc1cc(/C=C/C(=O)c2c(O)cc(O)cc2OC)ccc1O [Compound 14, 2′,4′,4-trihydroxy-3,6′-dimethoxychalchone] | 10.4 ± 0.2 | 1.6 | 16.5 ± 0.03 | – | – | – | – | – |
| COc1cccc(C2CC(=O)c3c(OC)cc(OC)cc3O2)c1 (stereo not drawn) [Compound 24, 5,7,3′-trimethoxyflavanone] | 49.3 ± 0.9 | 2.9 | 144 ± 2.3 | – | – | – | – | – |
| COc1cc(O)cc(O)c1C(=O)/C=C/c1cccc(O)c1 [Compound 1, 2′,4′,3-Trihydroxy-6′-methoxychalcone] | 7 ± 0.1 | 1.8 | 12.9 ± 0.2 | – | – | – | – | – |
| COc1cccc(/C=C/C(=O)c2c(O)cc(O)cc2OC)c1 [Compound 7, 2′,4′-dihydroxy-3,6′-dimethoxychalchone] | 4.7 ± 0.1 | – | 15.7 ± 0.2 | – | – | – | – | – |
| COc1cc(O)cc(O)c1C(=O)CCc1ccccc1 [Compound 16, uvangoletin] | 70.5 ± 0.3 | >5.2 | > 367 | – | – | – | – | – |
| COc1cc(O)cc(/C=C/C(=O)c2c(OC)cc(OC)c(O)c2O)c1 [Compound 11, 2′,3′,5-trihydroxy-4′,6′,3-trimethoxychalcone] | 22.5 ± 0.8 | 2.2 | 48.5 ± 0.8 | – | – | – | – | – |
| EtOH | – | – | – | 7.1 ± 0.6 | – | – | – | – |
| COc1cccc(/C=C/C(=O)c2c(O)cc(OC)cc2OC)c1 [Compound 9, 2′-hydroxy-3,4′,6′-trimethoxychalchone] | 10.8 ± 0.1 | – | 22.6 ± 0.5 | – | – | – | – | – |
| COc1cc(O)c2c(c1)O[C@H](c1ccc(O)cc1)CC2=O [Compound 23, sakuranetin] | 52.4 ± 2.1 | 3.5 | – | – | 184 ± 2.3 | – | – | – |
| COc1cccc(/C=C/C(=O)c2c(OC)cc(O)c(OC)c2O)c1 [Compound 10, 2′,4′-dihydroxy-3,3′,6′-trimethoxychalcone] | 32.7 ± 1.3 | 1.4 | 44.2 ± 0.7 | – | – | – | – | – |
| COc1cc(O)cc(O)c1C(=O)/C=C/c1ccccc1 [Compound 8, 2′,4′-dihydroxy-6′-methoxychalchone] | 9.6 ± 0.2 | – | – | – | 37.8 ± 1.1 | – | – | – |
| COc1cc(O)cc(/C=C/C(=O)c2c(O)cc(O)cc2OC)c1 [Compound 3, 2′,4′,3-Trihydroxy-6′,5-dimethoxychalcone] | 6 ± 0.3 | – | 12 ± 0.1 | – | – | – | – | – |
| COc1cc(OC)c(C(=O)/C=C/c2ccccc2)c(O)c1O [Compound 12, 2′,3′-dihydroxy-4′,6′-dimethoxychalchone] | 7.3 ± 0.6 | 3.5 | 25.3 ± 0.4 | – | – | – | – | – |
| COc1cc(O)cc(/C=C/C(=O)c2c(O)cc(OC)cc2OC)c1 [Compound 4, 2′,3-Dihydroxy-4′,6′,5-trimethoxychalcone] | 0.061 ± 0.001 | 233 | 14.2 ± 0.2 | – | – | 41 | – | – |
| Cc1ncc([N+](=O)[O-])n1CCO [Metronidazole, reference compound] | 2.5 ± 0.1 | >233 | > 584 | – | – | – | 0.4 ± 0.1 | 233 |
| COc1cc(O)c(OC)c(O)c1C(=O)/C=C/c1cccc(O)c1 [Compound 2, 2′,4′,3-Trihydroxy-3′,6′-dimethoxychalcone] | 47.7 ± 1.2 | 3.9 | 184 ± 2.6 | – | – | – | – | – |
